# Results from US20220177456A1, “COMPOUNDS, COMPOSITIONS AND METHODS” (Denali Therapeutics Inc., priority 2019, published 2022).
# Tested on: ISR pathway (ATF4 translation), H4 ATF4-NLuc (clone 17) cell line
# Experiment: ATF4 Nano Luciferase reporter integrated stress response (ISR) assay in H4 ATF4-NLuc cells
# Assay type: cell-based
# Details: human H4 neuroglioma ATF4-NLuc cells; compound 30 minutes, then 50 μm sodium arsenite for 6 hours; luminescence readout
# Description: Cellular stress leads to activation of the integrated stress response pathway through one of four eukaryotic initiation factor 2α kinases and halts global translation, while allowing for the translation of select transcripts like ATF4 (activating transcription factor 4) that are important for the response to cellular stress. During normal conditions, small open reading frames (ORFs) in the 5′ UTR of ATF4 occupy the ribosome and prevent translation of the coding sequence of ATF4. During stress conditions however, the ribosome scans past these upstream ORFs and preferentially begins translation at the coding sequence of ATF4. In this way, the translation, and thus protein level of ATF4 is a readout of ISR pathway activation. Thus, a fusion of the uORFs and the beginning of the coding sequence of ATF to a common cellular reporter like nano-luciferase allows for a sensitive and high-throughput readout of ISR pathway activity.
# Compounds as provided herein were tested in the following assay. The ATF4 Nano Luciferase reporter was constructed by fusing the human full length 5′ untranslated region (5′-UTR) and a small portion of the coding sequence of the ATF4 gene upstream of the Nano Luciferase (NLuc) coding sequence lacking it's start codon. Specifically, nucleotides +1 through +364 (relative to the transcriptional start site) of ATF4 transcript variant 2 (NCBI NM_182810.2) flanked 5′ by EcoRI and 3′ by BamHI restriction enzyme sites were synthesized and cloned into the EcoRI/BamHI cloning sites of pLVX-EF1a-IRES-Puro lentivirus vector (Clontech). Lentiviral particles were produced with Lenti-X single shots (VSV-G, Clontech) according to the manufacturer's instructions and used to transduce a human H4 neuroglioma cell line (ATCC HT1B-148). H4 cells were selected with 1.25 μg/mL Puromycin, and clonal cell lines generated by limiting dilution. We utilized this cell line to generate an integrated stress response (ISR) assay to evaluate the activity of ISR pathway inhibitors via luminescence readout. The H4 ATF4-NLuc (clone 17) cell line is plated at a density of […] cells in 96-well or 384-well respectively in DMEM +10% fetal bovine serum. 24-hours later test compounds diluted in dimethyl sulfoxide (DMSO) are added for 30 minutes at 37° C., followed by ISR pathway activation with 50 μm sodium arsenite aqueous solution for 6 additional hours. Nano Glo luciferase reagent (N1150, Promega) is added according to manufacturer instructions and the luminescence signal (corresponding to the level of ATF4 translation and thus ISR pathway activation) is read with a standard plate reader with luminescence detection capabilities.
# In the tables below, activity of the tested compounds is provided, and in Table 3 as follows: +++=0.003 μM<IC50<1 μM; ++=IC50 1-10 μM; +=IC50>10 μM.
row,SMILES,IC50 [µM]
1,"O=C(COc1ccc(Cl)cc1)N[C@@H]1CC[C@@H](C(=O)NCc2ccc(C(F)(F)F)cn2)OC1 [Example 27, (2S,5R)-5-[[2-(4-chlorophenoxy)acetyl]amino]-N-[[5-(trifluoromethyl)-2-pyridyl]methyl] tetrahydropyran-2-carboxamide]",0.003 to 1
2,"O=C(COc1ccc(C(F)(F)F)cc1)N[C@@H]1CC[C@@H](C(=O)NCc2ccc(C(F)(F)F)cc2)OC1 [Example 1, (2S,5R)-5-[[2-[4-(trifluoromethyl)phenoxy]acetyl]amino]-N-[[4-(trifluoromethyl)phenyl]methyl]tetrahydropyran-2-carboxamide]",0.003 to 1
3,"O=C(COc1ccc(C(F)(F)F)cc1)N[C@@H]1CC[C@@H](C(=O)Nc2ccc3cc(Cl)ccc3n2)OC1 [Example 2, (2S,5R)—N-(6-chloro-2-quinolyl)-5-[[2-[4-(trifluoromethyl)phenoxy]acetyl]amino]tetrahydropyran-2-carboxamide]",0.003 to 1
4,"O=C(COc1ccc(C(F)(F)F)cc1)N[C@@H]1CC[C@@H](C(=O)Nc2cc3ccc(Cl)cc3cn2)OC1 [Example 9, (2S,5R)-N-(7-chloro-3-isoquinolyl)-5-[[2-[4-(trifluoromethyl)phenoxy]acetyl]amino]tetrahydropyran-2-carboxamide]",0.003 to 1
5,"O=C(COc1ccc(C(F)(F)F)cc1)N[C@@H]1CC[C@@H](C(=O)N2CCc3nc(C(F)(F)F)ccc3C2)OC1 [Example 10, N-[(3R,6S)-6-[2-(trifluoromethyl)-7,8-dihydro-5H-1,6-naphthyridine-6-carbonyl]tetrahydropyran-3-yl]-2-[4-(trifluoromethyl)phenoxy] acetamide]",0.003 to 1
6,"CC1CN(C(=O)[C@@H]2CC[C@@H](NC(=O)COc3ccc(Cl)cc3)CO2)Cc2ccc(Cl)cc21 (stereo partly drawn) [Example 3, 2-(4-chlorophenoxy)-N-[(3R,6S)-6-(6-chloro-4-methyl-3,4-dihydro-1H-isoquinoline-2-carbonyl)tetrahydropyran-3-yl]acetamide]",0.003 to 1
7,"O=C(COc1ccc(C(F)(F)F)cc1)N[C@@H]1CC[C@@H](C(=O)N2Cc3ccc(C(F)(F)F)cc3C2)OC1 [Example 11, N-[(3R,6S)-6-[5-(trifluoromethyl)isoindoline-2-carbonyl]tetrahydropyran-3-yl]-2-[4-(trifluoromethyl)phenoxy] acetamide]",0.003 to 1
8,"O=C(COc1ccc(C(F)(F)F)cc1)N[C@@H]1CC[C@@H](C(=O)NCCCOC(F)(F)F)OC1 [Example 4, (2S,5R)-N-[3-(trifluoromethoxy)propyl]-5-[[2-[4-(trifluoromethyl)phenoxy]acetyl]amino]tetrahydropyran-2-carboxamide]",0.003 to 1
9,"O=C(N[C@@H]1CC[C@@H](C(=O)N[C@H]2C[C@@H](COC(F)(F)F)C2)OC1)c1ccc2cc(C(F)(F)F)ccc2n1 [Example 12, N-[(3R,6S)-6-[[3-cis-(trifluoromethoxymethyl)cyclobutyl]carbamoyl]tetrahydropyran-3-yl]-6-(trifluoromethyl) quinoline-2-carboxamide]",0.003 to 1
10,"O=C(COc1ccc(Cl)cc1)N[C@@H]1CC[C@@H](C(=O)NCc2ccc(Cl)cc2)OC1 [Example 29, (2S,5R)-5-[[2-(4-chlorophenoxy)acetyl]amino]-N-[(4-chlorophenyl)methyl] tetrahydropyran-2-carboxamide]",0.003 to 1
11,"O=C(COc1ccc(C(F)(F)F)cc1)N[C@@H]1CC[C@@H](C(=O)N2C[C@@H]3[C@H](C2)[C@H]3C(F)(F)F)OC1 [Example 8, N-[(3R,6S)-6-[(1r,5s)-6-(trifluoromethyl)-3-azabicyclo[3.1.0]hexane-3-carbonyl]tetrahydropyran-3-yl]-2-[4-(trifluoromethyl)phenoxy]acetamide]",1 to 10
12,"O=C(COc1ccc(C(F)(F)F)cc1)N[C@@H]1CC[C@@H](C(=O)N[C@H]2C[C@@H](COC(F)(F)F)C2)OC1 [Example 13, (2S,5R)-N-[3-cis-(trifluoromethoxymethyl)cyclobutyl]-5-[[2-[4-(trifluoromethyl)phenoxy]acetyl]amino]tetrahydropyran-2-carboxamide]",0.003 to 1
13,"O=C(COc1ccc(C(F)(F)F)cc1)N[C@@H]1CC[C@@H](C(=O)Nc2ccc3ccc(Cl)cc3n2)OC1 [Example 7, (2S,5R)-N-(7-chloro-2-quinolyl)-5-[[2-[4-(trifluoromethyl)phenoxy]acetyl]amino]tetrahydropyran-2-carboxamide]",0.003 to 1
14,"O=C(COc1ccc(Cl)cc1)N[C@@H]1CC[C@@H](C(=O)NCc2cccc(Cl)c2)OC1 [Example 15, (2S,5R)-5-[[2-(4-chlorophenoxy)acetyl]amino]-N-[(3-chlorophenyl)methyl] tetrahydropyran-2-carboxamide]",0.003 to 1
15,"O=C(COc1ccc(Cl)cc1)N[C@@H]1CC[C@@H](C(=O)N2CCc3ccc(Cl)cc3C2)OC1 [Example 21, 2-(4-chlorophenoxy)-N-[(3R,6S)-6-(7-chloro-3,4-dihydro-1H-isoquinoline-2-carbonyl)tetrahydropyran-3-yl]acetamide]",0.003 to 1
16,"O=C(COc1ccc(Cl)cc1)N[C@@H]1CC[C@@H](C(=O)NCc2ccc(C(F)(F)F)nc2)OC1 [Example 16, (2S,5R)-5-[[2-(4-chlorophenoxy)acetyl]amino]-N-[[6-(trifluoromethyl)-3-pyridyl]methyl] tetrahydropyran-2-carboxamide]",0.003 to 1
17,"O=C(COc1ccc(C(F)(F)F)cc1)N[C@@H]1CC[C@@H](C(=O)Nc2ccc3cc(C(F)(F)F)ccc3n2)OC1 [Example 28, (2S,5R)-5-[[2-[4-(trifluoromethyl)phenoxy]acetyl]amino]-N-[6-(trifluoromethyl)-2-quinolyl]tetrahydropyran-2-carboxamide]",0.003 to 1
18,"O=C(COc1ccc(Cl)cc1)N[C@@H]1CC[C@@H](C(=O)NCc2ccc(C(F)(F)F)cc2)OC1 [Example 20, (2S,5R)-5-[[2-(4-chlorophenoxy)acetyl]amino]-N-[[4-(trifluoromethyl)phenyl]methyl] tetrahydropyran-2-carboxamide]",0.003 to 1
19,"O=C(N[C@H]1C[C@@H](COC(F)(F)F)C1)[C@@H]1CC[C@@H](n2cnc(-c3ccc(Cl)c(F)c3)c2)CO1 [Example 24, (2S,5R)-5-[4-(4-chloro-3-fluoro-phenyl)imidazol-1-yl]-N-[3-cis-(trifluoromethoxymethyl)cyclobutyl] tetrahydropyran-2-carboxamide]",0.003 to 1
20,"O=C(COc1ccc(Cl)c(F)c1)N[C@@H]1CC[C@@H](C(=O)N2CCC(OC(F)(F)F)CC2)OC1 [Example 30, 2-(4-chloro-3-fluoro-phenoxy)-N-[(3R,6S)-6-[4-(trifluoromethoxy)piperidine-1-carbonyl]tetrahydropyran-3-yl]acetamide]",0.003 to 1
21,"O=C(NC[C@H]1C[C@@H](OC(F)(F)F)C1)[C@@H]1CC[C@@H](n2cnc(-c3ccc(Cl)c(F)c3)c2)CO1 [Example 26, (2S,5R)-5-[4-(4-chloro-3-fluoro-phenyl)imidazol-1-yl]-N-[[3-cis-(trifluoromethoxy)cyclobutyl]methyl] tetrahydropyran-2-carboxamide]",0.003 to 1
22,"O=C(COc1ccc(Cl)c(F)c1)N[C@@H]1CC[C@@H](C(=O)N2CCC(OC(F)(F)F)C2)OC1 (stereo partly drawn) [Example 31, 2-(4-chloro-3-fluoro-phenoxy)-N-[(3R,6S)-6-[3-(trifluoromethoxy)pyrrolidine-1-carbonyl]tetrahydropyran-3-yl]acetamide]",0.003 to 1
